Read-outs that look alike come from different tables or passages of the source.
What was measured:
[1] = cited from earlier work; for Kp,uu,brain Human: *3 ref Summerfield et al. (25)
[2] = cited from earlier work
[3] = Observed Kp,uu,brain and Kp,uu,CSF in monkeys; conditions: monkey, *1 data internally obtained; for Kp,uu,CSF Monkey: lumbar CSF
Procedure: Monkey experiments were conducted internally or at the Drug Safety Research Laboratories in Shin Nippon Biomedical Laboratories via consignment to Axcelead Drug Discovery Partners. […] Detailed dosage regimen for each compound is summarized in Supplemental Table 3. […] Each cassette was assigned to a separate group of monkeys. The vehicle was saline or a mixture of dimethylacetamide and 1,3-butanediol (1:1, v/v). At the end of the 6-h infusion or 1 h after intravenous bolus administration, the monkeys were anesthetized, and whole blood, CSF, and whole brain were collected. Blood was collected using the anticoagulant, heparin sodium, and immediately centrifuged; the plasma was transferred to polypropylene tubes. Then, ketamine hydrochloride (50 mg/mL; 0.2 mL/kg; 10 mg/kg) was intramuscularly administered. CSF was collected after lumbar puncture using a spinal needle (22–25G) and a syringe pre-wetted with 10% CHAPS solution to prevent adsorption of compounds to all the equipment during pretreatment. CSF samples were immediately centrifuged, and the supernatant layers were transferred to polypropylene tubes. […] After collecting the cerebellum, hippocampus, and cerebral cortex from the whole brain, these were washed with cold saline, weighed, and homogenized immediately in 4 volumes of ice-cold 100 mmol/L sodium phosphate buffer. All samples were stored at –80°C until analysis by LC-MS/MS. Each sample (50 μL) was mixed with the working solution (the mixture of dimethyl sulfoxide and acetonitrile (2:8, v/v)), and protein was precipitated by the addition of 150 μL acetonitrile containing the internal standards (5 ng/mL alprenolol and diclofenac). After centrifugation at 5,250 rpm and 4°C for 5 min, the supernatant (150 μL) was transferred to a polypropylene 96-well plate (Corning; Corning, NY, USA) and completely evaporated under a gentle stream of N2. The residue was reconstituted in dilution solution (mobile phase A/B (7:3, v/v)), and the supernatant was analyzed by LC-MS/MS.
Each sample (50 μL) was mixed with the working solution (the mixture of dimethyl sulfoxide and acetonitrile (2:8, v/v)), and the protein was precipitated by adding 150 μL acetonitrile containing internal standards (5 ng/mL alprenolol and diclofenac). After centrifugation at 5250 rpm and 4°C for 5 min, the supernatant (150 μL) was transferred to a polypropylene 96-well plate (Corning) and completely evaporated under a gentle stream of N2. The residue was reconstituted in mobile phase A/B (7:3, v/v)), and the supernatant was analyzed by LC-MS/MS. API5000 and QTRAP5500 (AB SCIEX, Framingham, MA, USA) equipped with Ultra-Fast Liquid Chromatography (Shimadzu, Kyoto, Japan) were used for determination of drug concentrations. Reversed-phase chromatography was performed using Shim-pack XR ODS (2.2 μm, 2.0×30 mm). Mobile phase A consisted of 10 mM ammonium formate with 0.2% formic acid, and mobile phase B contained acetonitrile with 0.2% formic acid. […] The mass spectrometer was operated in the positive ionization mode with multiple reaction monitoring (MRM). The MRM parameters (Q1 ion, Q3 ion, DP, EP, CE, and CXP) for monitoring the compounds are shown in Supplemental Table 4. Data acquisition and processing were performed using Analyst 1.6.2 (AB SCIEX, Framingham, MA, USA).
To perform correlation analyses between the observed Kp,uu,brain and Kp,uu,CSF, and the model-based prediction of Kp,uu,brain and Kp,uu,CSF, data from literature information were integrated into the internally obtained data for these assessments (Supplemental Table 2) ([17],[22]–[24],[27]–[33]). When only the total concentrations in plasma, CSF, and brain were available, the total concentration ratio in plasma to CSF or brain (Kp,CSF or Kp,brain, respectively) was estimated, followed by calculation of Kp,uu,CSF or Kp,uu,brain based on Eqs.

Structure (SMILES) | Kp,uu,CSF Human ([1]; *4 ref Friden et al. (21)) | Kp,uu,CSF Rat ([2]; *4 ref Friden et al. (21)) | Kp,uu,brain Rat ([2]; *4 ref Friden et al. (21)) | also measured
CO[C@@]1(NC(=O)C(C(=O)O)c2ccc(O)cc2)C(=O)N2C(C(=O)O)=C(CSc3nnnn3C)CO[C@@H]21 (some centres unmarked) [Moxalactam] | 0.41 | 0.02 | 0.019 | 
Cc1c(O)cccc1C(=O)N[C@@H](CSc1ccccc1)[C@H](O)CN1C[C@H]2CCCC[C@H]2C[C@H]1C(=O)NC(C)(C)C [Nelfinavir] | 0.045 | 0.067 | 0.019 | Kp,uu,CSF Monkey [3]: 0.640; Kp,uu,brain Monkey [3]: 0.008
O=C1CN(/N=C/c2ccc([N+](=O)[O-])o2)C(=O)N1 [Nitrofurantoin] |  | 0.0099 | 0.011 | 
CCn1cc(C(=O)O)c(=O)c2cc(F)c(N3CCNCC3)cc21 [Norfloxacin] | 0.11 | 0.018 | 0.028 | 
C=CCOc1ccccc1OCC(O)CNC(C)C (centres unmarked) [Oxprenolol] |  | 0.1 | 0.200 | 
CN1CC[C@]23c4c5ccc(O)c4O[C@H]2C(=O)CC[C@@]3(O)[C@H]1C5 [Oxymorphone] |  | 0.91 | 0.790 | 
O=C1NC(=O)C(c2ccccc2)(c2ccccc2)N1 [Phenytoin] |  |  |  | Kp,uu,brain Human [1]: 0.59; Kp,uu,brain Rat ([2]; *3 ref Summerfield et al. (25)): 0.316; Kp,uu,brain Rat ([2]; *7 ref Kodaira et al. (20)): 0.447; Kp,uu,CSF Rat ([2]; in vivo): 0.396
O=C(O)C[C@H](O)C[C@H](O)/C=C/c1c(C2CC2)nc2ccccc2c1-c1ccc(F)cc1 [Pitavastatin] |  |  |  | Kp,uu,CSF Monkey [3]: 0.129; Kp,uu,brain Monkey [3]: 0.242
COc1ccc(C2CNC(=O)C2)cc1OC1CCCC1 (centres unmarked) [Rolipram] |  |  |  | Kp,uu,brain Human [1]: 1.00
O=C(O)c1ccccc1O [Salicylic acid] | 0.19 | 0.16 | 0.190 | 
CC(C)(C)NC(=O)[C@@H]1C[C@@H]2CCCC[C@@H]2CN1C[C@@H](O)[C@H](Cc1ccccc1)NC(=O)[C@H](CC(N)=O)NC(=O)c1ccc2ccccc2n1 [Saquinavir] | 0.096 |  | 0.055 | 
CSc1ccc2c(c1)N(CCC1CCCCN1C)c1ccccc1S2 (centres unmarked) [Thioridazine] | 1.4 | 0.21 | 0.45 | Kp,uu,brain Rat ([2]; *3 ref Summerfield et al. (25)): 1.425
COc1cccc(C2(O)CCCCC2CN(C)C)c1 (centres unmarked) [Tramadol] |  |  |  | Kp,uu,CSF Human ([1]; in vivo): 1.44; Kp,uu,CSF Rat ([2]; in vivo): 0.71; Kp,uu,brain Rat ([2]; in vivo): 1.460
O=c1n(CCCN2CCN(c3cccc(Cl)c3)CC2)nc2ccccn12 [Trazodone] |  |  |  | Kp,uu,brain Human [1]: 0.93; Kp,uu,brain Rat ([2]; *3 ref Summerfield et al. (25)): 0.957
